Literature values as cited in patent US20050267212A1, “Omega-3 fatty acids in the treatment of depression” (priority 1997, published 2005).

Target: T1, cyclooxygenase-2 (Homo sapiens, UniProt P35354)
T1 sequence (P35354 18-604): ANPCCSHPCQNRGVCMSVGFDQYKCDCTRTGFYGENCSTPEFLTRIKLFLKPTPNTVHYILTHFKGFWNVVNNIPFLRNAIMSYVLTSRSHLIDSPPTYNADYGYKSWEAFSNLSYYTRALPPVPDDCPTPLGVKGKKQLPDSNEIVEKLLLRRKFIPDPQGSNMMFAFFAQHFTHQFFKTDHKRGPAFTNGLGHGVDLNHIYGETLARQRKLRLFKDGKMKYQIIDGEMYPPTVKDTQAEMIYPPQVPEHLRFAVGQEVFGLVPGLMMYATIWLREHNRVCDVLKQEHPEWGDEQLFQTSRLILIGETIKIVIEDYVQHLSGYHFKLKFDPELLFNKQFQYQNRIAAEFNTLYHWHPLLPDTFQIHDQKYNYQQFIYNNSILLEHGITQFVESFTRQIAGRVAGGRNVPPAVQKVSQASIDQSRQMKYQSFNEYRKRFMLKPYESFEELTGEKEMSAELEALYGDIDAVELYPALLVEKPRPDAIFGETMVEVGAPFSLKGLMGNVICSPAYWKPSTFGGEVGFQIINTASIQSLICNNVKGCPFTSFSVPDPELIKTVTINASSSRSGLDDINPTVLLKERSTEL
Conditions: cultured human mast cells

CC/C=C\C/C=C\C/C=C\C/C=C\C/C=C\CCCC(=O)O [EPA, eicosapentanoic acid]
effect on cyclooxygenase-2: direct inhibition
